Measurements published in ChEMBL document CHEMBL1201862, “PubChem BioAssay data set” (2004).
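Growth conditions: 96-well plates. Treatment: test compound, 48 hours, 5 concentrations. Analysis: linear interpolation between bracketing concentrations; unreached endpoints set to highest concentration. At the GI50, growth is halved.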 Calls of active or inactive are those of the source. Rule as the data show it: active = GI50 up to about 1.1 µM and inactive = higher.

Legend:
Assay in all cases: NCI tumour cell line growth inhibition, 48 h
DMS-114 = system: DMS-114
M19-MEL = system: M19-MEL
XF498 = system: XF498
RXF 631 = system: RXF 631
DLD-1 = system: DLD-1
LXFL 529 = system: LXFL 529
SNB-78 = system: SNB-78
Hs-578T = system: Hs-578T
BT-549 = system: BT-549

Measured: GI50

CC1=C(C(=O)Nc2ccccc2C)C(c2ccc(N(C)C)cc2)C(C(=O)Nc2ccccc2C)=C(C)N1
inactive: DMS-114 48.4 µM | M19-MEL > 100 µM | XF498 22.6 µM | RXF 631 56.4 µM | DLD-1 45.9 µM

CN(C)c1ccc2c(c1)C(=O)N(OS(=O)(=O)c1ccc([N+](=O)[O-])cc1)C2=O
inactive: DMS-114 > 10 µM | LXFL 529 17.9 µM | M19-MEL 19 µM | SNB-78 26.7 µM | XF498 16.7 µM | RXF 631 22.3 µM | DLD-1 24 µM

O=S(=O)(SCCCCSS(=O)(=O)c1ccc(Cl)cc1)c1ccc(Cl)cc1
inactive: DMS-114 6.67 µM | LXFL 529 12.2 µM | M19-MEL 14.8 µM | SNB-78 18.6 µM | RXF 631 8.2 µM | DLD-1 13.8 µM

O=C(NCc1cccnc1)C1COc2cc(-c3cc(=O)c4ccccc4o3)ccc2O1 (stereo not drawn)
inactive: DMS-114 14.1 µM | LXFL 529 4.95 µM | M19-MEL 3.93 µM | SNB-78 > 82.8 µM | XF498 24.6 µM | RXF 631 > 56.1 µM | DLD-1 > 100 µM

CC(C)(C)C1CC[C@H]2c3c([nH]c4ccccc34)[C@H]3C(=O)N(c4ccc(F)cc4)C(=O)[C@H]3[C@H]2C1 (stereo partly drawn)
inactive: DMS-114 17.1 µM | LXFL 529 16 µM | M19-MEL 17.1 µM | SNB-78 18.4 µM | XF498 14.2 µM | DLD-1 16.8 µM

O=c1cc(-c2ccccc2)oc2ccc(Cl)cc12 [6-CHLOROFLAVONE]
inactive: Hs-578T > 44.8 µM | DMS-114 49.9 µM | BT-549 > 100 µM | LXFL 529 > 100 µM | M19-MEL > 100 µM | SNB-78 48.2 µM | XF498 37.2 µM | DLD-1 > 100 µM

COc1cc(C=O)c(-c2c(C=O)ccc3c2OCO3)c(OC)c1OC
inactive: DMS-114 > 100 µM | LXFL 529 > 100 µM | M19-MEL 61.4 µM | SNB-78 > 100 µM | RXF 631 > 100 µM | DLD-1 > 100 µM

O=C(O/N=C1/CCCC/C1=C\c1ccccc1)c1ccc(Cl)c(Cl)c1
inactive: LXFL 529 14.6 µM | M19-MEL 68.7 µM | SNB-78 19.1 µM | XF498 48.8 µM | RXF 631 16.8 µM | DLD-1 84.5 µM

CN/C=C(/c1ccc(OC)cc1)C(O)c1ccc(OC)c(OC)c1 (stereo not drawn)
inactive: DMS-114 > 100 µM | M19-MEL > 100 µM | XF498 > 100 µM | RXF 631 > 100 µM | DLD-1 > 100 µM

O=NN(CCCl)C(=O)NC1CCCCC1 [LOMUSTINE]
inactive: Hs-578T 37.9 µM | DMS-114 45.8 µM | BT-549 8.24 µM | LXFL 529 47.4 µM | M19-MEL 53 µM | XF498 64.9 µM | RXF 631 47.8 µM | DLD-1 30.2 µM

O=C(O/N=C1/CCC/C1=C\c1ccccc1)c1ccc(Cl)c(Cl)c1
inactive: DMS-114 > 100 µM | LXFL 529 > 100 µM | M19-MEL > 100 µM | SNB-78 > 100 µM | RXF 631 > 100 µM | DLD-1 > 100 µM

Cc1cc(Cl)ccc1NC(=O)CC/C(CC(=O)C(C)C)=N\NC(=O)C[n+]1ccccc1
inactive: DMS-114 > 100 µM | LXFL 529 > 100 µM | SNB-78 > 100 µM | XF498 > 100 µM | RXF 631 > 100 µM

CCOC(=O)C(/N=N\c1ccc(S(N)(=O)=O)cc1)C(C)=O (stereo not drawn)
inactive: DMS-114 > 100 µM | LXFL 529 > 100 µM | M19-MEL > 100 µM | SNB-78 > 100 µM | XF498 > 100 µM | RXF 631 > 100 µM | DLD-1 > 100 µM

CC1(CO)OC(n2cc(C(=O)NC(=O)OCc3ccccc3)c(=O)[nH]c2=O)CC1O (stereo not drawn)
inactive: DMS-114 > 100 µM | LXFL 529 > 100 µM | M19-MEL > 100 µM | XF498 > 100 µM | RXF 631 > 100 µM | DLD-1 > 100 µM
